In ChEMBL document CHEMBL1136310, “Pyrazino[1,2-a]indole-1,4-diones, simple analogues of gliotoxin, as selective inhibitors of geranylgeranyltransferase I” (Bioorg Med Chem Lett, 2003):

Legend:
[1] = target: Protein farnesyltransferase (Homo sapiens, UniProt P49354+P49356); test: Inhibition of [3H]FPP incorporation into recombinant human Ha-Ras-CVLS by farnesyl transferase; assay type: protein-complex assay
[2] = target: Geranylgeranyl transferase type I (Homo sapiens, UniProt P49354+P53609); test: Inhibition of [3H]-GGPP incorporation into recombinant human Ha-Ras-CVLL by Geranylgeranyl transferase type I; assay type: protein-complex assay

SMILES	IC50 [1] [µM]	IC50 [2] [µM]
COc1cccc2c1cc1n2C(=O)C(SSCc2ccccc2)N(C)C1=O (stereo unspecified)	> 100	> 100
COc1cccc2c1cc1n2C(=O)C(SC(C)=O)N(C)C1=O (stereo unspecified)	748	90.3
CN1C(=O)c2cc3ccccc3n2C(=O)C1SSCc1ccccc1 (stereo unspecified)	> 100	> 100
COc1cccc2c1cc1n2C(=O)CN(C)C1=O	> 100	> 100
CN1CC(=O)N2c3ccccc3CC2C1=O (stereo unspecified)	> 100	> 100
COc1cccc2c1CC1C(=O)N(C)CC(=O)N21 (stereo unspecified)	> 100	> 100
CN1CC(=O)n2c(cc3ccccc32)C1=O	> 100	> 100
CN1C(=O)[C@]23CC4=CC=C[C@H](O)[C@H]4N2C(=O)[C@@]1(CO)SS3 [GLIOTOXIN]	80	17
